In ChEMBL document CHEMBL3045554, “Synthesis and antimicrobial screening of N-(1-methyl-1H-pyrazole-4-carbonyl)-thiourea derivatives” (2012):
≈ marks a conversion by molar mass, not a printed value. One block for each compound: values may come before it. Calls of active or inactive are those of the source. No cut-off for these calls is given here.

How the values were obtained:
Acinetobacter baumannii [1] = assay: Antimicrobial activity against Acinetobacter baumannii 15896 by microdilution method; assay type: functional
Pseudomonas aeruginosa [2] = assay: Antimicrobial activity against Pseudomonas aeruginosa 5541 by microdilution method; assay type: functional
Escherichia coli [3] = assay: Antimicrobial activity against Escherichia coli 637/2007 by microdilution method; assay type: functional
Klebsiella pneumoniae [4] = assay: Antimicrobial activity against Klebsiella pneumoniae 126/2007 by microdilution method; assay type: functional
Staphylococcus aureus [5] = assay: Antimicrobial activity against Staphylococcus aureus by microdilution method; assay type: functional
Bacillus subtilis [6] = assay: Antimicrobial activity against Bacillus subtilis 10.10.2006 by microdilution method; assay type: functional
Enterococcus faecalis [7] = assay: Antimicrobial activity against Enterococcus faecalis 13773 by microdilution method; assay type: functional
Escherichia coli [8] = assay: Effect on lipase production in Escherichia coli 637/2007 after 7 days; assay type: functional, organism-based
Acinetobacter baumannii [9] = assay: Inhibition of lecithinase production in Acinetobacter baumannii 15896 after 7 days; assay type: functional, organism-based
Klebsiella pneumoniae [10] = assay: Effect on esculethol production in Klebsiella pneumoniae 126/2007 after 24 hr by esculin hydrolysis test; assay type: functional, organism-based
Acinetobacter baumannii [11] = assay: Effect on gelatinase production in Acinetobacter baumannii 15896 after 24 hr by gelatin hydrolysis test; assay type: functional, organism-based
Escherichia coli [12] = assay: Inhibition of lecithinase production in Escherichia coli 637/2007 after 7 days; assay type: functional, organism-based
Enterococcus faecalis [13] = assay: Inhibition of caseinase production in Enterococcus faecalis 13773 after 24 hr by casein hydrolysis assay; assay type: functional, organism-based
Staphylococcus aureus [14] = assay: Inhibition of caseinase production in Staphylococcus aureus after 24 hr by casein hydrolysis assay; assay type: functional, organism-based
Bacillus subtilis [15] = assay: Effect on DNase production in Bacillus subtilis 10.10.2006 after 24 hr; assay type: functional, organism-based
Bacillus subtilis [16] = assay: Effect on lipase production in Bacillus subtilis 10.10.2006 after 7 days; assay type: functional, organism-based
Klebsiella pneumoniae [17] = assay: Effect on DNase production in Klebsiella pneumoniae 126/2007 after 24 hr; assay type: functional, organism-based
Staphylococcus aureus [18] = assay: Effect on lipase production in Staphylococcus aureus after 7 days; assay type: functional, organism-based
Acinetobacter baumannii [19] = assay: Inhibition of caseinase production in Acinetobacter baumannii 15896 after 24 hr by casein hydrolysis assay; assay type: functional, organism-based
Staphylococcus aureus [20] = assay: Effect on DNase production in Staphylococcus aureus after 24 hr; assay type: functional, organism-based
Enterococcus faecalis [21] = assay: Effect on lipase production in Enterococcus faecalis 13773 after 7 days; assay type: functional, organism-based
Escherichia coli [22] = assay: Inhibition of caseinase production in Escherichia coli 637/2007 after 24 hr by casein hydrolysis assay; assay type: functional, organism-based
Bacillus subtilis [23] = assay: Inhibition of caseinase production in Bacillus subtilis 10.10.2006 after 24 hr by casein hydrolysis assay; assay type: functional, organism-based
Acinetobacter baumannii [24] = assay: Effect on esculethol production in Acinetobacter baumannii 15896 after 24 hr by esculin hydrolysis test; assay type: functional, organism-based
Enterococcus faecalis [25] = assay: Effect on esculethol production in Enterococcus faecalis 13773 after 24 hr by esculin hydrolysis test; assay type: functional, organism-based
Staphylococcus aureus [26] = assay: Effect on gelatinase production in Staphylococcus aureus after 24 hr by gelatin hydrolysis test; assay type: functional, organism-based
Bacillus subtilis [27] = assay: Effect on gelatinase production in Bacillus subtilis 10.10.2006 after 24 hr by gelatin hydrolysis test; assay type: functional, organism-based
Enterococcus faecalis [28] = assay: Effect on DNase production in Enterococcus faecalis 13773 after 24 hr; assay type: functional, organism-based
Pseudomonas aeruginosa [29] = assay: Effect on lipase production in Pseudomonas aeruginosa 5541 after 7 days; assay type: functional, organism-based
Klebsiella pneumoniae [30] = assay: Effect on gelatinase production in Klebsiella pneumoniae 126/2007 after 24 hr by gelatin hydrolysis test; assay type: functional, organism-based
Pseudomonas aeruginosa [31] = assay: Effect on esculethol production in Pseudomonas aeruginosa 5541 after 24 hr by esculin hydrolysis test; assay type: functional, organism-based
Acinetobacter baumannii [32] = assay: Effect on lipase production in Acinetobacter baumannii 15896 after 7 days; assay type: functional, organism-based
Enterococcus faecalis [33] = assay: Inhibition of lecithinase production in Enterococcus faecalis 13773 after 7 days; assay type: functional, organism-based
Klebsiella pneumoniae [34] = assay: Effect on amylase production in Klebsiella pneumoniae 126/2007 after 24 hr by starch hydrolysis assay; assay type: functional, organism-based
Klebsiella pneumoniae [35] = assay: Inhibition of lecithinase production in Klebsiella pneumoniae 126/2007 after 7 days; assay type: functional, organism-based
Pseudomonas aeruginosa [36] = assay: Effect on gelatinase production in Pseudomonas aeruginosa 5541 after 24 hr by gelatin hydrolysis test; assay type: functional, organism-based
Staphylococcus aureus [37] = assay: Effect on esculethol production in Staphylococcus aureus after 24 hr by esculin hydrolysis test; assay type: functional, organism-based
Enterococcus faecalis [38] = assay: Effect on amylase production in Enterococcus faecalis 13773 after 24 hr by starch hydrolysis assay; assay type: functional, organism-based
Bacillus subtilis [39] = assay: Effect on esculethol production in Bacillus subtilis 10.10.2006 after 24 hr by esculin hydrolysis test; assay type: functional, organism-based
Pseudomonas aeruginosa [40] = assay: Inhibition of caseinase production in Pseudomonas aeruginosa 5541 after 24 hr by casein hydrolysis assay; assay type: functional, organism-based
Pseudomonas aeruginosa [41] = assay: Effect on DNase production in Pseudomonas aeruginosa 5541 after 24 hr; assay type: functional, organism-based
Klebsiella pneumoniae [42] = assay: Inhibition of caseinase production in Klebsiella pneumoniae 126/2007 after 24 hr by casein hydrolysis assay; assay type: functional, organism-based
Staphylococcus aureus [43] = assay: Effect on amylase production in Staphylococcus aureus after 24 hr by starch hydrolysis assay; assay type: functional, organism-based
Acinetobacter baumannii [44] = assay: Effect on DNase production in Acinetobacter baumannii 15896 after 24 hr; assay type: functional, organism-based
Escherichia coli [45] = assay: Effect on amylase production in Escherichia coli 637/2007 after 24 hr by starch hydrolysis assay; assay type: functional, organism-based
Enterococcus faecalis [46] = assay: Effect on gelatinase production in Enterococcus faecalis 13773 after 24 hr by gelatin hydrolysis test; assay type: functional, organism-based
Escherichia coli [47] = assay: Effect on DNase production in Escherichia coli 637/2007 after 24 hr; assay type: functional, organism-based
Escherichia coli [48] = assay: Effect on esculethol production in Escherichia coli 637/2007 after 24 hr by esculin hydrolysis test; assay type: functional, organism-based
Pseudomonas aeruginosa [49] = assay: Inhibition of lecithinase production in Pseudomonas aeruginosa 5541 after 7 days; assay type: functional, organism-based
Acinetobacter baumannii [50] = assay: Effect on amylase production in Acinetobacter baumannii 15896 after 24 hr by starch hydrolysis assay; assay type: functional, organism-based
Escherichia coli [51] = assay: Effect on gelatinase production in Escherichia coli 637/2007 after 24 hr by gelatin hydrolysis test; assay type: functional, organism-based
Bacillus subtilis [52] = assay: Effect on amylase production in Bacillus subtilis 10.10.2006 after 24 hr by starch hydrolysis assay; assay type: functional, organism-based
Pseudomonas aeruginosa [53] = assay: Effect on amylase production in Pseudomonas aeruginosa 5541 after 24 hr by starch hydrolysis assay; assay type: functional, organism-based
Staphylococcus aureus [54] = assay: Inhibition of lecithinase production in Staphylococcus aureus after 7 days; assay type: functional, organism-based
Klebsiella pneumoniae [55] = assay: Effect on lipase production in Klebsiella pneumoniae 126/2007 after 7 days; assay type: functional, organism-based
Bacillus subtilis [56] = assay: Inhibition of lecithinase production in Bacillus subtilis 10.10.2006 after 7 days; assay type: functional, organism-based

Structure (SMILES): CCCc1ccc(NC(=S)NC(=O)c2cnn(C)c2)cc1
MIC (Acinetobacter baumannii [1]): > 1000 µg/mL
MIC (Pseudomonas aeruginosa [2]): > 1000 µg/mL
MIC (Escherichia coli [3]): > 1000 µg/mL
MIC (Klebsiella pneumoniae [4]): > 1000 µg/mL
MIC (Staphylococcus aureus [5]): > 1000 µg/mL
MIC (Bacillus subtilis [6]): > 1000 µg/mL
MIC (Enterococcus faecalis [7]): > 1000 µg/mL

Structure (SMILES): CC(C)c1ccc(NC(=S)NC(=O)c2cnn(C)c2)cc1
MIC (Acinetobacter baumannii [1]): > 1000 µg/mL
MIC (Pseudomonas aeruginosa [2]): > 1000 µg/mL
MIC (Escherichia coli [3]): > 1000 µg/mL
MIC (Klebsiella pneumoniae [4]): > 1000 µg/mL
MIC (Staphylococcus aureus [5]): > 1000 µg/mL
MIC (Bacillus subtilis [6]): > 1000 µg/mL
MIC (Enterococcus faecalis [7]): > 1000 µg/mL

Structure (SMILES): CCC(C)c1ccc(NC(=S)NC(=O)c2cnn(C)c2)cc1 (stereo unspecified)
MIC (Acinetobacter baumannii [1]): > 1000 µg/mL
MIC (Pseudomonas aeruginosa [2]): > 1000 µg/mL
MIC (Escherichia coli [3]): > 1000 µg/mL
MIC (Klebsiella pneumoniae [4]): > 1000 µg/mL
MIC (Staphylococcus aureus [5]): > 1000 µg/mL
MIC (Bacillus subtilis [6]): > 1000 µg/mL
MIC (Enterococcus faecalis [7]): > 1000 µg/mL

Structure (SMILES): CC(C)c1ccccc1NC(=S)NC(=O)c1cnn(C)c1
MIC (Acinetobacter baumannii [1]): > 1000 µg/mL
MIC (Pseudomonas aeruginosa [2]): > 1000 µg/mL
MIC (Escherichia coli [3]): > 1000 µg/mL
MIC (Klebsiella pneumoniae [4]): 1000 µg/mL (≈ 3.31 mM)
MIC (Staphylococcus aureus [5]): > 1000 µg/mL
MIC (Bacillus subtilis [6]): > 1000 µg/mL
MIC (Enterococcus faecalis [7]): > 1000 µg/mL

The remaining compounds from weak to strong by MIC (Acinetobacter baumannii [1]), led by results:

MIC (Acinetobacter baumannii [1]): 1000 µg/mL (≈ 3.16 mM)
MIC (Pseudomonas aeruginosa [2]): > 1000 µg/mL
MIC (Escherichia coli [3]): > 1000 µg/mL
MIC (Klebsiella pneumoniae [4]): > 1000 µg/mL
MIC (Staphylococcus aureus [5]): > 1000 µg/mL
MIC (Bacillus subtilis [6]): > 1000 µg/mL
MIC (Enterococcus faecalis [7]): > 1000 µg/mL
Structure (SMILES): Cn1cc(C(=O)NC(=S)Nc2ccccc2C(C)(C)C)cn1

inhibition (Acinetobacter baumannii [9]): inactive
Activity (Acinetobacter baumannii [11]): inactive
inhibition (Enterococcus faecalis [13]): inactive
Activity (Bacillus subtilis [15]): inactive
Activity (Bacillus subtilis [16]): inactive
Activity (Klebsiella pneumoniae [17]): inactive
inhibition (Acinetobacter baumannii [19]): inactive
Activity (Enterococcus faecalis [21]): inactive
inhibition (Bacillus subtilis [23]): inactive
MIC (Acinetobacter baumannii [1]): 250 µg/mL (≈ 0.827 mM)
Activity (Bacillus subtilis [27]): inactive
Activity (Enterococcus faecalis [28]): inactive
Activity (Pseudomonas aeruginosa [29]): inactive
Activity (Klebsiella pneumoniae [30]): inactive
MIC (Pseudomonas aeruginosa [2]): 1000 µg/mL (≈ 3.31 mM)
Activity (Acinetobacter baumannii [32]): inactive
inhibition (Enterococcus faecalis [33]): inactive
Activity (Klebsiella pneumoniae [34]): inactive
inhibition (Klebsiella pneumoniae [35]): inactive
Activity (Pseudomonas aeruginosa [36]): inactive
MIC (Escherichia coli [3]): 1000 µg/mL (≈ 3.31 mM)
MIC (Klebsiella pneumoniae [4]): 500 µg/mL (≈ 1.65 mM)
Activity (Enterococcus faecalis [38]): inactive
inhibition (Pseudomonas aeruginosa [40]): inactive
Activity (Pseudomonas aeruginosa [41]): inactive
MIC (Staphylococcus aureus [5]): 500 µg/mL (≈ 1.65 mM)
inhibition (Klebsiella pneumoniae [42]): inactive
Activity (Acinetobacter baumannii [44]): inactive
Activity (Enterococcus faecalis [46]): inactive
inhibition (Pseudomonas aeruginosa [49]): inactive
Activity (Acinetobacter baumannii [50]): inactive
MIC (Bacillus subtilis [6]): 500 µg/mL (≈ 1.65 mM)
Activity (Bacillus subtilis [52]): inactive
MIC (Enterococcus faecalis [7]): 250 µg/mL (≈ 0.827 mM)
Activity (Pseudomonas aeruginosa [53]): inactive
Activity (Klebsiella pneumoniae [55]): inactive
inhibition (Bacillus subtilis [56]): inactive
Structure (SMILES): CCCc1ccccc1NC(=S)NC(=O)c1cnn(C)c1
Activity (Escherichia coli [8]): inactive
Activity (Klebsiella pneumoniae [10]): inactive
inhibition (Escherichia coli [12]): inactive
inhibition (Staphylococcus aureus [14]): inactive
Activity (Staphylococcus aureus [18]): inactive
Activity (Staphylococcus aureus [20]): inactive
inhibition (Escherichia coli [22]): Active
Activity (Acinetobacter baumannii [24]): inactive
Activity (Enterococcus faecalis [25]): inactive
Activity (Staphylococcus aureus [26]): inactive
Activity (Pseudomonas aeruginosa [31]): inactive
Activity (Staphylococcus aureus [37]): inactive
Activity (Bacillus subtilis [39]): inactive
Activity (Staphylococcus aureus [43]): inactive
Activity (Escherichia coli [45]): inactive
Activity (Escherichia coli [47]): inactive
Activity (Escherichia coli [48]): inactive
Activity (Escherichia coli [51]): inactive
inhibition (Staphylococcus aureus [54]): inactive
